Activity calls are given as the source filed them. No rule for the calls is given here.
Test system: CCRIS mutagenicity, Ames/micronucleus/aberration tests
Assay: CCRIS mutagenicity studies

In the case of `CCCCC(CC)COC(=O)c1ccccc1C(=O)OCC(CC)CCCC` (stereo not drawn), the mutagenic call (Test System: AMES SALMONELLA TYPHIMURIUM, Strain/Indicator: TA1535, Metabolic Activation: RAT LIVER S-9, PHENOBARBITAL AND BETA-NAPHTHOFLAVONE, Method: PREINCUBATION) is reported as “inactive; negative”, the mutagenic call (Test System: AMES SALMONELLA TYPHIMURIUM, Strain/Indicator: TA1535, Metabolic Activation: RAT, LIVER, S-9, AROCLOR 1254 (10%), Method: PREINCUBATION) is reported as “inactive; negative” and the mutagenic call (Test System: AMES SALMONELLA TYPHIMURIUM, Strain/Indicator: TA1535, Metabolic Activation: RAT, LIVER, S-9, AROCLOR 1254, Method: STANDARD PLATE) is reported as “inactive; negative”. The mutagenic call (Test System: AMES SALMONELLA TYPHIMURIUM, Strain/Indicator: TA1537, Metabolic Activation: HAMSTER, LIVER, S-9, AROCLOR 1254 (10%), Method: PREINCUBATION) was “inactive; negative”, the mutagenic call (Test System: AMES SALMONELLA TYPHIMURIUM, Strain/Indicator: TA1537, Metabolic Activation: NONE, Method: FLUCTUATION (MICROTITER)) was “inactive; negative” and the mutagenic call (Test System: AMES SALMONELLA TYPHIMURIUM, Strain/Indicator: TA1537, Metabolic Activation: NONE, Method: PREINCUBATION) was “inactive; negative”. The mutagenic call (Test System: AMES SALMONELLA TYPHIMURIUM, Strain/Indicator: TA1537, Metabolic Activation: NONE, Method: STANDARD PLATE) was “inactive; negative”, the mutagenic call (Test System: AMES SALMONELLA TYPHIMURIUM, Strain/Indicator: TA1537, Metabolic Activation: RAT LIVER S-9, AROCLOR 1254, Method: FLUCTUATION (MICROTITER)) was “inactive; negative” and the mutagenic call (Test System: AMES SALMONELLA TYPHIMURIUM, Strain/Indicator: TA1537, Metabolic Activation: RAT LIVER S-9, PHENOBARBITAL AND BETA-NAPHTHOFLAVONE, Method: PREINCUBATION) was “inactive; negative”. For the same compound, the mutagenic call (Test System: AMES SALMONELLA TYPHIMURIUM, Strain/Indicator: TA1537, Metabolic Activation: RAT, LIVER, S-9, AROCLOR 1254 (10%), Method: PREINCUBATION) was “inactive; negative”, the mutagenic call (Test System: AMES SALMONELLA TYPHIMURIUM, Strain/Indicator: TA1537, Metabolic Activation: RAT, LIVER, S-9, AROCLOR 1254, Method: STANDARD PLATE) was “inactive; negative” and the mutagenic call (Test System: AMES SALMONELLA TYPHIMURIUM, Strain/Indicator: TA1538, Metabolic Activation: NONE, Method: STANDARD PLATE) was “inactive; negative”. For the same compound, the mutagenic call (Test System: AMES SALMONELLA TYPHIMURIUM, Strain/Indicator: TA1538, Metabolic Activation: RAT, LIVER, S-9, AROCLOR 1254, Method: STANDARD PLATE) was “inactive; negative”, the mutagenic call (Test System: AMES SALMONELLA TYPHIMURIUM, Strain/Indicator: TA2638, Metabolic Activation: RAT LIVER S-9, PHENOBARBITAL AND 5,6-BENZOFLAVONE, Method: STANDARD PLATE) was “inactive; negative” and the mutagenic call (Test System: AMES SALMONELLA TYPHIMURIUM, Strain/Indicator: TA7001, Metabolic Activation: NONE, Method: FLUCTUATION (MICROTITER)) was “inactive; negative”. For the same compound, the mutagenic call (Test System: AMES SALMONELLA TYPHIMURIUM, Strain/Indicator: TA7001, Metabolic Activation: RAT LIVER S-9, AROCLOR 1254, Method: FLUCTUATION (MICROTITER)) was “inactive; negative”, the mutagenic call (Test System: AMES SALMONELLA TYPHIMURIUM, Strain/Indicator: TA7002, Metabolic Activation: NONE, Method: FLUCTUATION (MICROTITER)) was “inactive; negative” and the mutagenic call (Test System: AMES SALMONELLA TYPHIMURIUM, Strain/Indicator: TA7002, Metabolic Activation: RAT LIVER S-9, AROCLOR 1254, Method: FLUCTUATION (MICROTITER)) was “inactive; negative”. The mutagenic call (Test System: AMES SALMONELLA TYPHIMURIUM, Strain/Indicator: TA7003, Metabolic Activation: NONE, Method: FLUCTUATION (MICROTITER)) was “inactive; negative”, the mutagenic call (Test System: AMES SALMONELLA TYPHIMURIUM, Strain/Indicator: TA7003, Metabolic Activation: RAT LIVER S-9, AROCLOR 1254, Method: FLUCTUATION (MICROTITER)) was “inactive; negative” and the mutagenic call (Test System: AMES SALMONELLA TYPHIMURIUM, Strain/Indicator: TA7004, Metabolic Activation: NONE, Method: FLUCTUATION (MICROTITER)) was “inactive; negative”. For the same compound, the mutagenic call (Test System: AMES SALMONELLA TYPHIMURIUM, Strain/Indicator: TA7004, Metabolic Activation: RAT LIVER S-9, AROCLOR 1254, Method: FLUCTUATION (MICROTITER)) was “inactive; negative”, the mutagenic call (Test System: AMES SALMONELLA TYPHIMURIUM, Strain/Indicator: TA7005, Metabolic Activation: NONE, Method: FLUCTUATION (MICROTITER)) was “inactive; negative” and the mutagenic call (Test System: AMES SALMONELLA TYPHIMURIUM, Strain/Indicator: TA7005, Metabolic Activation: RAT LIVER S-9, AROCLOR 1254, Method: FLUCTUATION (MICROTITER)) was “inactive; negative”. For the same compound, the mutagenic call (Test System: AMES SALMONELLA TYPHIMURIUM, Strain/Indicator: TA7006, Metabolic Activation: NONE, Method: FLUCTUATION (MICROTITER)) was “inactive; negative”, the mutagenic call (Test System: AMES SALMONELLA TYPHIMURIUM, Strain/Indicator: TA7006, Metabolic Activation: RAT LIVER S-9, AROCLOR 1254, Method: FLUCTUATION (MICROTITER)) was “inactive; negative” and the mutagenic call (Test System: E. COLI, Strain/Indicator: WP2 (PKM101), Metabolic Activation: RAT LIVER S-9, PHENOBARBITAL, AND 5,6-BENZOFLAVONE, Method: STANDARD PLATE) was “inactive; negative”. For the same compound, the mutagenic call (Test System: E. COLI, Strain/Indicator: WP2 UVRA (PKM101), Metabolic Activation: RAT LIVER S-9, PHENOBARBITAL AND 5,6-BENZOFLAVONE, Method: STANDARD PLATE) was “inactive; negative”, the mutagenic call (Test System: E.COLI, Strain/Indicator: WP2UVRA, Metabolic Activation: NONE, Method: PREINCUBATION) was “inactive; negative” and the mutagenic call (Test System: E.COLI, Strain/Indicator: WP2UVRA, Metabolic Activation: RAT LIVER S-9, PHENOBARBITAL AND BETA-NAPHTHOFLAVONE, Method: PREINCUBATION) was “inactive; negative”. The mutagenic call (Test System: MOUSE LYMPHOMA, Strain/Indicator: L5178Y (TK+/+)/OUABAIN, Metabolic Activation: NONE, Method: SUSPENSION/PLATE) was “inactive; negative”, the mutagenic call (Test System: MOUSE LYMPHOMA, Strain/Indicator: L5178Y (TK+/+)/OUABAIN, Metabolic Activation: RAT LIVER S-9, AROCLOR 1254, Method: SUSPENSION/PLATE) was “inactive; negative” and the mutagenic call (Test System: MOUSE LYMPHOMA, Strain/Indicator: L5178Y (TK+/-)/TRIFLUROTHYMIDINE, Metabolic Activation: NONE, Method: SUSPENSION/PLATE) was “inactive; negative”. The mutagenic call (Test System: MOUSE LYMPHOMA, Strain/Indicator: L5178Y (TK+/-)/TRIFLUROTHYMIDINE, Metabolic Activation: RAT LIVER S-9, AROCLOR 1254, Method: SUSPENSION/PLATE) was “inactive; negative”, the mutagenic call (Test System: MOUSE LYMPHOMA, Strain/Indicator: L5178Y (TK+/TK-), Metabolic Activation: NONE, Method: SUSPENSION/PLATE) was “inactive; negative” and the mutagenic call (Test System: MOUSE LYMPHOMA, Strain/Indicator: L5178Y (TK+/TK-), Metabolic Activation: RAT, LIVER, S-9, AROCLOR 1254, Method: SUSPENSION/PLATE) was “active; positive”. For the same compound, the mutagenic call (Test System: MOUSE LYMPHOMA, Strain/Indicator: L5178Y (TK+/TK-), Metabolic Activation: RAT, LIVER, S-9, Method: SUSPENSION/PLATE) was “inactive; negative” and the mutagenic call (Test System: UDS RAT HEPATOCYTES, Strain/Indicator: THY INCORP, Metabolic Activation: NONE, Method: LIQUID SCINTILLATION COUNTING) was “active; positive”.
